From PMC12713097, “ARL3 Enhances ERα Stability via USP10 Deubiquitination to Promote Endocrine Resistance and Drive Mitochondrial Metabolic Reprogramming in HR+ Breast Cancer” (Advanced Science, 2025)

Target: ARL3 (Homo sapiens, UniProt P36405)
Assay: microscale thermophoresis (Monolith NT.[…])
Type: binding

Chain of ARL3 (P36405 2-182): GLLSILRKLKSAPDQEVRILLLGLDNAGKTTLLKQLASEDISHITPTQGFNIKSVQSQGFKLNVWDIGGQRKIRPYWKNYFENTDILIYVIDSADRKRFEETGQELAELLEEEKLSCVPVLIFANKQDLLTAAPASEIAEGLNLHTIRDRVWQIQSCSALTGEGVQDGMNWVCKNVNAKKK

Kd: 12 µM
SMILES: Cc1c(-c2ccc(N3CCc4cccc(C(=O)Nc5nc6ccccc6s5)c4C3)nc2C(=O)O)cnn1CC12CC3CC(CC(C3)C1)C2 [A-1331852]
